Experimental data from patent US20020146823A1, “Method for promoting hematopoietic and mesenchymal cell proliferation and differentiation” (The University of Southern California, priority 1997, published 2002).

Tested on: enriched HPC from C57B1/6 mice
Assay: Murine HPC colony formation in semi-solid culture
Format: cell-based
Protocol: HPC were harvested from C57B1/6 mice by immunomagnetic affinity chromatography and placed in semi-solid cultures with optimal growth medium. At various times after initiation of culture, the formation of colonies and the size of the colonies (number of cells/colony) were assessed microscopically.
Female C57B1/6 mice were purchased from Simonson and used as a source of bone marrow cells in this study. The bone marrow was harvested, either from untreated mice or from mice injected with 5-fluorouracil (5-FU) (3 mg/mouse; approximately 150 mg/kg) in the tail vein 48 hours before harvest, from the femur and tibia of mice by flushing with phosphate buffered saline (PBS), pH 7.4, containing 2% fetal bovine serum (FBS) with a 21-gauge needle. The eluant from the flushing was centrifuged and the pellet was resuspended at 4×10^7 nucleated cells/ml in PBS containing PBS containing 2% FBS and 5% normal rat serum.
The reagents for immunomagnetic labeling were purchased from Stem Cell Technologies, Inc. (Vancouver, BC). […]

Substance: Asp-Arg-Val-Tyr-Ile-His-Pro-Phe (DRVYIHPF; printed: Asp-Arg-Val-Tyr-Ile-His-Pro-Phe) [AII, octapeptide present in humans and other species; known pressor agent, commercially available]
- HPC colony size (0 to 100 μg/ml, normal and 5-FU treated): increases proportionately with exposure to increased concentrations of AII
- macroscopic colonies (day 14, enriched HPC from untreated (normal) mice, 100 μg/ml): 100
